Measured values reported in patent US8257725B2, “Delivery of highly lipophilic agents via medical devices” (Abbott Laboratories, priority 1997, dated 2012).

Key:
[1] = Octanol/water partition coefficient, shake-flask method; assay type: physicochemical; conditions: for transfer coefficient (P divided by S), order: FIG. 21, S = equilibrium aqueous solubility (μg/ml); for lipophilicity (partition coefficient octanol/water): n-octanol/buffered water
Method: “Solubility” is based on a standard measure used in medicinal chemistry. The octanol-water partition coefficient (P) is the ratio of distribution of a compound in a mixture of 1-octanol and H2O. LogP is the base 10 logarithm of the partition coefficient.
In the measurement of the partition coefficient (octanol/water), preliminary studies were conducted to determine the optimum drug concentration for each test, and the appropriate time for establishing the partition equilibrium. All experiments were carried out by two different analysts and on multiple drug lots.
A transfer coefficient, τ, can be defined as P divided by S, where P equals the partition coefficient and S equals theequilibrium aqueous solubility, (μg/ml) as shown in FIG. 21. […] Where S equals the equilibrium aqueous solubility of the amorphous form of the drug were possible.

[2] = representative summary for suitable beneficial agents; cited from earlier work
[3] = Pig model, zotarolimus concentrations in tissues after ZoMaxx stents; assay type: in vivo; conditions: eluted from ZoMaxx stents, FIG. 25
[4] = Pharmacokinetics after single intravenous dose in cynomolgus monkey; conditions: single 2.5 mg/kg intravenous dose
[5] = Six-hour elution from PC1036-coated coupons in pH 7.4 phosphate buffered saline; assay type: physicochemical; conditions: for amount released from the coupon: after six hours, PBS pH 7.4, 37° C.; for amount remaining on the coupon: six-hour elution
Method: Prior to any experimentation, coated stainless steel coupons were prepared. These coupons were 316L electropolished stainless steel discs (10 mm diameter). This size was chosen because the surface area of one side of the coupon is similar to the surface area of a 15-mm open cell BiodivYsio stent. […]. The cleaning was a two-step process in which the coupons are sonicated for 3 minutes in dichloromethylene and 3 minutes in ethanol. The coupons were allowed to dry at room temperature. One side of the coupon was coated using a filtered 20-mg/mL solution of phosphoryl choline polymer PC1036 (product of Biocompatibles Ltd., Famham, Surrey, UK) in ethanol. Twenty μL PC solution was placed onto the coupon using a gas tight glass syringe, ensuring that the entire surface was coated but not spilling over the sides of the coupon. The coupons were initially air dried and then cured at 70° C. for 16 hours. They were then sent for gamma irradiation at <25 KGy. The resulting PC coating thickness was close to that of the stent and thick enough to accommodate the desired loaded drug dose, as graphically represented in FIG. 9A-B. FIG. 9A-B is a top and side view of a coated stainless steel coupon 30, having a PC-coating 20 on a electropolished stainless steel disc.
In these experiments, beneficial agents were loaded onto coupons and elution profiles examined. In general, the procedure is as follows. Twelve PC-coated coupons were loaded with each drug. The solutions of the drugs were usually 5.0 mg/mL in 100% ethanol and were filtered with a 0.45 μm filter prior to use.
The coupons were weighed before loading with the drug solution. To load 100 μg of drug, 20 μL of solution was placed (e.g., pipetted) on the center of the PC coated side of the coupon. The coupon was placed in a vial for 30 minutes with the lid closed to allow the drug to penetrate the coating. The lid was removed and the coupon was allowed to dry for an additional 90 minutes. To ensure that the coupon was completely dry, the coupon was weighed, and after 15 minutes the coupon was weighed a third time. When two weightings of the coupon were the same, the coupon was considered dry. The loaded, dry coupons were stored in a refrigerator protected from light.
Six coated coupons of each drug were used for the elution experiments. The coupons were individually placed, coating side up, in small metal cups to hold the coupon and to allow movement to a new vial at each time point. The coupons were usually placed in a vial containing 10 mL of pH 7.4 phosphate buffered saline. The vials were stored in an orbital shaker, with horizontal shaking of 100 rpm, at 37° C. for at least 30 minutes before insertion of a coupon to allow the solution to equilibrate at the desired temperature. After the desired time had lapsed, the coupon holder was lifted and allowed to drain. It was then placed into a pre-warmed vial corresponding to the next time point. This procedure continued until the predetermined time had elapsed. At that point, the coupons went through a drug extraction step as outlined earlier. The amount of drug in the elution samples was determined by HPLC.

[6] = Aqueous solubility, shake-flask method; conditions: amorphous DES drugs; dexamethasone crystalline
[7] = Stability of drug on PC-coated stents after ETO sterilization (HPLC); assay type: physicochemical
Method: In these experiments, beneficial agents were loaded onto stents and the stability of the two drugs was examined. In general, the procedure was as follows. Multiple PC-coated stents were loaded with each drug combination from solution. The solutions of the drugs were usually in the range of 2-20 mg/mL of zotarolimus and 10.0 mg/mL dexamethasone in 100% ethanol, with ˜10% PC1036 added to the solution to enhance film formation.
The stents were weighed before loading with the drug solution. To load approximately […] of each drug, a solution with equal amounts of zotarolimus and dexamethasone was sprayed onto the stent in a controlled fashion. The stent was allowed to dry before the stents were re-weighed to determine total drug load. The loaded, dry stents were stored in a refrigerator and were protected from light.
After drug loading, stents were crimped onto catheter balloons and packaged into medical product Tyvek pouches for ETO (ethylene oxide) sterilization. The ETO sterilization process is standard in the medical device industry to ensure product safety. […]
For each drug, multiple stents were used to evaluate the purity and stability of the drug loaded by the above procedure. […] The concentration and the presence of degradant-related impurities of the drug in the extraction solution were analyzed by HPLC.

[8] = alone, in the absence of zotarolimus

With “3 S,6R,7E,9R,10R,12R,14S,15E,17E,19E,21S, 23S,26R,27R,34aS)-9,10,12,13,14,21,22,23,24,25,26,27,32,33,34,34a-Hexadecahydro-9,27-dihydroxy-3-[(1R)-2-[(1S,3R,4R)-3-methoxy-4-tetrazol-1-yl)cyclohexyl]-1-methylethyl]-10,21-dimethoxy-6,8,12,14,20,26-hexamethyl-23,27-epoxy-3H-pyrido[2,1-c][1,4]oxaazacyclohentriacontine-1,5,11,28,29(4H,6H,31H)-pentone [Zotarolimus]” the “transfer coefficient (P divided by S), order” value [1] was “zotarolimus>>paclitaxel>>rapamycin>dexamethasone”, the “lipophilicity (partition coefficient octanol/water)” value ([1]; shake-flask, FIG. 20) was “most lipophilic of all DES drugs tested” and the “lipophilicity relative to rapamycin” value ([1]; shake-flask, FIG. 20) was “more than two times as lipophilic as rapamycin”. The “LogP Values” [2] was >4.5, the “concentration in arterial tissue adjacent to the stent placement” value ([3]; all periods out to 28 days) was “substantial concentrations” and the “concentration in distal, unstented and subjacent myocardium and unstented and distal coronary arteries” value ([3]; throughout 28 days) was “therapeutically significant concentrations”.
Work on “40-epi-N-[2′-pyridone]-rapamycin [Example 2-pyridone]” yielded a t1/2 ([4]; terminal elimination half-life) of 2.8 h.
For `CO[C@H]1C[C@@H]2CC[C@@H](C)[C@@](O)(O2)C(=O)C(=O)N2CCCC[C@H]2C(=O)O[C@H]([C@H](C)C[C@@H]2CC[C@H](n3ncnn3)[C@H](OC)C2)CC(=O)[C@H](C)/C=C(\C)[C@@H](O)[C@@H](OC)C(=O)[C@H](C)C[C@H](C)/C=C/C=C/C=C/1C` (single isomer, unassigned; less polar) [Example 1, 42-Epi-(tetrazolyl)-rapamycin (less polar isomer)], the “terminal elimination half-life (t1/2) compared to rapamycin” value [4] was “substantially shorter”.
With `CCCCN(CCCC)C(=O)CN1C[C@H](c2ccc3c(c2)OCO3)[C@@H](C(=O)O)[C@@H]1c1ccc(OC)cc1` [ABT-627, atrasentan] the “amount released from the coupon” value [5, 8] was 50% and the “amount released from the coupon” value ([5]; in the presence of zotarolimus) was “less than 10%”.
For `C[C@@H]1C[C@H]2[C@@H]3CCC4=CC(=O)C=C[C@]4(C)[C@@]3(F)[C@@H](O)C[C@]2(C)[C@@]1(O)C(=O)CO` [Dexamethasone], the “LogP Values” [2] is listed as ~1.9–2.2, the “Aqueous solubility, increasing order” value [6] is listed as “paclitaxel, zotarolimus, rapamycin, and dexamethasone (crystalline)” and the “amount remaining on the coupon” value ([5]; coupon containing dexamethasone and zotarolimus) is listed as ~70%. The “amount remaining on the coupon” value ([5]; no zotarolimus present) was 25%, the “degradation in the ETO sterilization environment” value ([7]; dexamethasone-only coating) was “degraded” and the “degradation in the ETO sterilization environment” value ([7]; loaded in combination with zotarolimus, 1-to-1 ratio) was “did not degrade”.
For `OCCN(CCO)c1nc(N2CCCCC2)c2nc(N(CCO)CCO)nc(N3CCCCC3)c2n1` [Dipyridamole], the “amount released from the coupon” value [5, 8] was ~90% and the “amount released from the coupon” value ([5]; in the presence of zotarolimus) was “about 52%”.
With `CC(=O)O[C@H]1C(=O)[C@@]2(C)[C@H]([C@H](OC(=O)c3ccccc3)[C@]3(O)C[C@H](OC(=O)[C@H](O)[C@@H](NC(=O)c4ccccc4)c4ccccc4)C(C)=C1C3(C)C)[C@]1(OC(C)=O)CO[C@@H]1C[C@@H]2O` [Paclitaxel] the “transfer coefficient (P divided by S), order” value [1] was “zotarolimus>>paclitaxel>>rapamycin>dexamethasone” and the “Aqueous solubility, increasing order” value [6] was “paclitaxel, zotarolimus, rapamycin, and dexamethasone (crystalline)”.
For `CO[C@H]1C[C@@H]2CC[C@@H](C)[C@@](O)(O2)C(=O)C(=O)N2CCCC[C@H]2C(=O)O[C@H]([C@H](C)C[C@@H]2CC[C@@H](O)[C@H](OC)C2)CC(=O)[C@H](C)/C=C(\C)[C@@H](O)[C@@H](OC)C(=O)[C@H](C)C[C@H](C)/C=C/C=C/C=C/1C` [Rapamycin], the “transfer coefficient (P divided by S), order” value [1] is listed as “zotarolimus>>paclitaxel>>rapamycin>dexamethasone”, the “lipophilicity (partition coefficient octanol/water)” value ([1]; shake-flask, FIG. 20) is listed as “most lipophilic compounds in the group tested” and the “LogP Values” [2] is listed as >4.5. For the same compound, the “Aqueous solubility, increasing order” value [6] was “paclitaxel, zotarolimus, rapamycin, and dexamethasone (crystalline)”.
